According to patent EP4588485A1, “PHARMACEUTICAL COMBINATION OF FAK INHIBITOR AND TOPOISOMERASE INHIBITOR AND USE THEREOF” (Inxmed (Nanjing) Co., Ltd., priority 2022, dated 2024):

Experiments:
MDA-MB-231 cells [1] = assay: Apoptosis by Annexin V flow cytometry after FAK siRNA silencing plus topoisomerase inhibitor; format: cell-based; settings: FAK siRNA 50 nM for 24 hours, then 2 µM drug for 48 hours; FAK silencing group compared with control siRNA group; Fig. 1 / Fig. 3
Procedure: The siRNA technology was used in the in vitro assay to reduce the expression level of FAK, and combined with Etoposide for 48 hours; flow cytometry was used to detect apoptosis in control and FAK silenced cells.
Assay antibodies: recombinant Alexa Fluor® 647 fluorescent Anti-Calreticulin antibody (Abcam, ab196159), Annexin V apoptosis detection kit (Invitrogen, A35110).
MDA-MB-231 cells were transfected with control siRNA or FAK siRNA at a final concentration of 50 nM, respectively. After the transfection for 24 hours, the cells were treated with 2 µM of Etoposide for 48 hours. The cells were stained using Annexin V kit and detected by flow cytometry. The early and late apoptotic values were counted, compared with those of the DMSO control group, and plotted using Graphpad 8.0.
The siRNA technology was used in the in vitro assays to reduce the expression level of FAK, and combined with Teniposide for 48 hours; flow cytometry was used to detect apoptosis in control and FAK silenced cells. […]
MDA-MB-231 cells were transfected with control siRNA or FAK siRNA at a final concentration of 50 nM, respectively. […] The cells were stained using Annexin V kit and detected by flow cytometry. The early and late apoptosis values were counted, compared with those of the DMSO control group, and plotted using Graphpad 8.0.

MDA-MB-231 cells [2] = assay: Calreticulin release and exposure by flow cytometry after FAK siRNA silencing plus topoisomerase inhibitor; format: cell-based; settings: FAK siRNA 50 nM for 24 hours, then 2 µM drug for 48 hours; compared with control siRNA; Fig. 2 / Fig. 4
Procedure: The siRNA technology was used in the in vitro assay to reduce the expression level of FAK, and combined with Etoposide for 48 hours. Flow cytometry was used to detect the expression of Calreticulin, the main target of ICD.
MDA-MB-231 cells were transfected with control siRNA or FAK siRNA at a final concentration of 50 nM, respectively. After the transfection for 24 hours, the cells were treated with 2 µM of Etoposide for 48 hours. The cells were fluorescent stained with Calreticulin antibody, and the staining results were analyzed by flow cytometry.
The siRNA technology was used in the in vitro assay to reduce the expression level of FAK, and combined with Teniposide for 48 hours. Flow cytometry was used to detect the expression of Calreticulin, the main target of ICD.
MDA-MB-231 cells were transfected with control siRNA or FAK siRNA at a final concentration of 50 nM, respectively. After the transfection for 24 hours, the cells were treated with 2 µM Teniposide for 48 hours. The cells were fluorescent stained with Calreticulin antibody, and the staining results were analyzed by flow cytometry.

CT26 cells [3] = assay: CCK-8 cell proliferation inhibition; format: cell-based; settings: Mus musculus, single drug, 72 hours, CCK8, OD450
Procedure: CT26 cells were cultured with RPMI-1640 (Shanghai Basalmedia, catalog number: L210KJ, batch number: F210916) + 10% FBS (Gibco, catalog number: 10099-141c, batch number: 2158737cp), and passaged twice. When the cells were in good condition, they were placed in a 96-well plate, 3000 cells/well. […] 10 drug concentrations were set. The first concentration was 30 µM, which was serially diluted 5-fold, and the last one was the control, with the drug concentration of 0. Each drug concentration was run in triplicate. At the same time, another group of cells was established with the same drug concentration as that in the above method.
10 µl of CCK8 detection reagent (Cellorlab, classification number: CX001M, batch number: 2571100) was added to each well, and the plate was incubated in a 5% CO2 incubator at 37 °C for 2-4 hours. Then the plate was read using microplate reader OD450 (chemiluminescence method). […]
CT26 cells were digested with trypsin, and then the cells were collected and counted. […]
After 72 hours of drug action, 10 µL of CCK-8 detection reagent was added to each well of the cell plate using a multi-channel pipette, and then the cell plate was incubated in a 37 °C, 5% CO2 incubator for another 4 hours. Finally, the absorbance of each well at 450 nm was measured using an ELISA reader. […]

CT26 cells [4] = assay: Microscope observation of cell status after 48 hours of drug action; format: cell-based, mouse; settings: IN10018 5 µM; for cell status observed under a microscope: Etoposide 20 µM, Fig. 6; for cell status observed under a microscope (cell death / cell viability): Teniposide 4.8 µM
Procedure: CT26 cells (Institute of Cell Biology, Chinese Academy of Sciences) were cultured with RPMI-1640 (Shanghai Basalmedia, catalog number: L210KJ, batch number: F210916) + 10% FBS (Gibco, catalog number: 10099-141c, batch number: 2158737cp), and passaged twice. When the cells were in good condition, they were placed in a 24-well plate. After 24 hours of cell spreading, four groups were set up. The first group was the control group, in which culture medium was added; the second group was IN10018 at a concentration of 5µM; the third group was Etoposide (source: MCE, classification number: 33419-42-0, batch number: 113741) with a concentration of 20 µM; and the fourth group was a combination group of IN10018 (5 µM) and Etoposide (20 µM). The drugs were mixed and cultured in a 5 % CO2 incubator at 37°C for 48 hours.
After 48 hours of drug action, the cells were observed and photographed under a microscope. The photos were saved. Then the cells were collected for flow cytometry, and the cells were washed twice with flow buffer (PBS + 2% FBS). 0.5 µl of AF647 anti-Calreticulin antibody (abcam, catalog number: ab196159, batch number: CR33676773) was added to each well, and fully mixed. The cells were incubated at 4 °C for 20 minutes in the dark. After 20 minutes, the cells were washed twice with flow buffer (PBS + 2% FBS). Cell apoptosis detection kit (Beyotime, catalog number: CL062L, batch number: 021921210811) was used. 195 µl of Annexin-V-FITC binding solution was added, and the cells were gently mixed. 5 µl of annexin-V-FITC antibody was added, and the mixture was gently mixed. 10 µl of PI dye was added and gently mixed. The mixture was incubated at room temperature in the dark for 15 minutes, and then analyzed on a flow cytometer.
After 48 hours of drug action, the cells were photographed using a microscope, then trypsinized and collected for flow cytometry staining.

[5] = system: MC38 mouse colorectal cancer cells; assay: In vivo antitumor efficacy in subcutaneous allograft tumor model; design: species or system C57BL/6 mice
Procedure: Table 12: Animal groups and dosing regimens for in vivo efficacy assays
(§1) • 1. N: number of mice in each group; • 2. Dosing volume: 10 mL/kg based on the mouse body weight. If the body weight dropped by more than 15%, the administration of the animals would be stopped; When the body weight recovered to 90%, the administration would be resumed. • 3. The Etoposide dose was increased to 6 mg/kg on the 6th day after grouping and dosing;
Colorectal cancer cells MC38 (from Nanjing Cobioer Biotechnology Co., Ltd., article number: CBP60825) were maintained and passaged by InxMed (Nanjing) Co., Ltd. Cells were cultured in monolayer in vitro under the following conditions: DMEM medium with 10% fetal bovine serum, in a 37°C, 5% CO2 incubator. Cells were routinely digested and passaged two to three times a week using trypsin-EDTA. When the cells were in the exponential growth phase and the adherent confluence reached 80%-90%, the cells were harvested, counted, and then inoculated.
0.1 mL of cell suspension containing 2×10^5 cells was subcutaneously inoculated on the right back of each mouse. When the tumor volume reached about 50 mm^3 (9th day after cell inoculation), the mice were randomly divided into groups and administered according to the tumor volume. Table 13: Test substance and control solvent preparation
The assay index was to examine whether the tumor growth was inhibited, delayed, or cured. Tumor diameters were measured three times a week using calipers. The tumor volume was calculated using the formula: V = 0.5 × a × b^2, where a and b represent the long and short diameters of the tumor, respectively.
The anti-tumor efficacy of the compound was evaluated by TGI (%), which reflected the tumor growth inhibition rate. Based on the tumor volume on the first day after grouping, the tumor growth inhibition rate TGI (%) was calculated according to the following formula: TGI (%) = [1 - (average tumor volume of an administration group - average tumor volume of the administration group at the beginning of treatment) / (average tumor volume of the solvent control group - average tumor volume of the solvent control group at the beginning of treatment)] × 100%.
Statistical analysis was based on tumor volume at the end of the assay using Prism Graphpad software. Comparisons between multiple groups were analyzed using Two-way ANOVA and Fisher's LSD test. A P-value of less than 0.05 was considered statistically significant.
After cell inoculation, tumor growth was observed every day. On the 9th day after inoculation, mice were grouped based on tumor volume. The average tumor volume at enrollment was approximately 50 mm^3.

[6] = day 17 after group administration, 6 mice per group; deaths due to tumor rupture
Procedure: as §1
The formulation and any modifications of this assay protocol had been assessed and approved by the IACUC of ArrayBridge. The use and welfare of assay animals were carried out in accordance with AAALAC regulations. The health status and mortality of animals were monitored daily, with routine checks including observation of tumor growth and the impact of drug treatment on the animals' daily behavior, such as activity, food and water intake (estimated by visual inspection), changes in body weight, physical signs, or any other abnormalities. The number of animal deaths and side effects in each group were recorded based on the number of animals in each group.
The assay was carried out according to the dosing regimen. During the assay, the animals' activities such as eating and drinking were observed every day, and the body weight of the animals was recorded three times a week. […]

Compound | apoptosis (early and late apoptotic values) (MDA-MB-231 cells [1]) | release and exposure of Calreticulin (MDA-MB-231 cells [2]) | IC50 (CT26 cells [3]) [µM] | cell status observed under a microscope (CT26 cells [4]) | cell status observed under a microscope (cell death / cell viability) (CT26 cells [4]) | Tumor volume on day 17 ([5]; 17th day after group administration, Etoposide 3 mg/kg PO QD (6 mg/kg from the 6th day), IN10018 25 mg/kg PO QD, PD-L1 antibody 5 mg/kg i.p. BIW, mean ± SD) [mm^3] | Tumor volume on day 0 ([5]; baseline on the day of grouping, mean ± SD, 6 mice per group) [mm^3] | TGI ([5]; day 17 vs. control group, Etoposide 3 mg/kg PO QD (6 mg/kg from the 6th day), IN10018 25 mg/kg PO QD, PD-L1 antibody 5 mg/kg i.p. BIW) [%] | inhibitory effect on tumor growth ([5]; in words, compared with the blank control group, whole dosing cycle, Fig. 11) | Animal Survival [6]
COc1cc([C@@H]2c3cc4c(cc3[C@@H](O[C@@H]3O[C@@H]5CO[C@@H](C)O[C@H]5[C@H](O)[C@H]3O)[C@H]3COC(=O)[C@H]23)OCO4)cc(OC)c1O [Etoposide] | significantly enhanced | significantly enhanced | 24.4 | poor | obvious | 2420.2±1377.3 | 48.2 ± 10.2 | 9.5 | no inhibitory effect | 5/6
COc1cc(C(=O)NC2CCN(C)CC2)c(F)cc1Nc1ncc(C(F)(F)F)c(Oc2cccc3c2C(=O)N(C)C3)n1 [IN10018] |  |  |  | good | better |  |  |  |  | 
COc1cc([C@@H]2c3cc4c(cc3[C@@H](O[C@@H]3O[C@@H]5CO[C@@H](c6cccs6)O[C@H]5[C@H](O)[C@H]3O)[C@H]3COC(=O)[C@H]23)OCO4)cc(OC)c1O [Teniposide] | significantly enhanced | significantly enhanced | 0.818 |  |  |  |  |  |  | 
